# Test results taken from patent US20210361598A1, “COMPOUNDS FOR PREVENTION AND TREATMENT OF POST-INTENSIVE CARE COGNITIVE DYSFUNCTION AND COGNITIVE DYSFUNCTION RESULTING FROM RESPIRATORY DISTRESS” (Abrexa Pharmaceuticals, Inc., priority 2020, published 2021).
# “Also recorded” adds a separate entry of the source.
# How the values were obtained:
# [1] = system: post-surgical cognitive dysfunction; conditions: cited from earlier work; for Effect on post-surgical cognitive dysfunction: literature reports, after surgery
# [2] = system: neonatal hypoxic-ischemia (HI) in mice; test: NeuN+ area and TUNEL+ cell count in hippocampus of HI mice
# Procedure: Neonatal hypoxic-ischemia (HI) was performed at P10 and daily 10 μg/g J147 was gavage-fed from P10 to P14.
# [3] = system: neonatal hypoxic-ischemic brain injury in p10 C57BL6 mice; test: Open field test in HI mice; format: in vivo, mouse; conditions: 4 days post HI
# Procedure: (§1) Postnatal day 10 mice were subjected to the modified Vanucci-Rice model of neonatal hypoxic-ischemic injury (permanent right common carotid artery ligation followed by 8% oxygen/balance nitrogen exposure) and then treatment started the same day by daily oral gavage with J147 at 10 mg/kg/day for 2 weeks after injury. Infarction volume, performance on functional tests of coordination, locomotion and memory, markers of neurogenesis, and apoptotic cell death were measured. Hypoxic-ischemic (HI) injury and J147 treatment: To induce HI injury, permanent right common carotid artery ligation was performed in p10 C57BL6 mice followed by 8% oxygen/balance nitrogen exposure for 45 min at 37° C. hypoxic chamber. From the day of HI injury, either J147 (10 mg/kg/day) or vehicle (corn oil, same volume) were once daily administered through oral gavage for a period of two weeks. […]
# [4] = system: neonatal hypoxic-ischemic brain injury in p10 C57BL6 mice; test: Rotarod test in HI mice; format: in vivo, mouse; conditions: 5 weeks after HI
# Procedure: as §1
# [5] = system: neonatal hypoxic-ischemic brain injury in p10 C57BL6 mice; test: Neural precursor marker fluorescence staining in HI mice; format: in vivo, mouse
# [6] = system: neonatal hypoxic-ischemic encephalopathy (HIE) in C57BL6 mice; test: TUNEL staining, dose dependency of apoptotic cell death in dentate gyrus, neonatal HIE mouse model; format: in vivo; conditions: n=6, HIE untreated 141.7+56.6
# Procedure: C57BL6 mice were subjected to complete unilateral carotid blockage using cauterizer at P10 followed by 45 min hypoxic exposure at 8% O2, and this was followed by daily oral gavage delivery of J147 in a range of doses or vehicle at P10-P14. Then animals were sacrificed and processed for TUNEL staining. In sham group, very few TUNEL+ cells are observed in dentate gyrus (DG, 4.7+4.1/each). […] For 10 μg/g/day group and 25 μg/g/day group, 42.2+23 (p<0.001) and 31.7+21.4 (p<0.001) cells are found in DG (One-way ANOVA; n=6).
# [7] = system: neonatal hypoxic-ischemic brain injury in p10 C57BL6 mice; test: Postmortem MRI volumetric measurement of lesion in neonatal HI mouse model; format: in vivo
# Procedure: Postnatal day 10 mice were subjected to the modified Vanucci-Rice model of neonatal hypoxic-ischemic injury (permanent right common carotid artery ligation followed by 8% oxygen/balance nitrogen exposure) and then treatment started the same day by daily oral gavage with J147 at 10 mg/kg/day for 2 weeks after injury. Infarction volume, performance on functional tests of coordination, locomotion and memory, markers of neurogenesis, and apoptotic cell death were measured. Hypoxic-ischemic (HI) injury and J147 treatment: To induce HI injury, permanent right common carotid artery ligation was performed in p10 C57BL6 mice followed by 8% oxygen/balance nitrogen exposure for 45 min at 37° C. hypoxic chamber. From the day of HI injury, either J147 (10 mg/kg/day) or vehicle (corn oil, same volume) were once daily administered through oral gavage for a period of two weeks. Magnetic resonance imaging (MRI): […] A 3D rapid acquisition with refocused echoes sequence was used (TE/TR=40/2000 ms, RARE factor=8, 4 signal averages, FOV=16.0 mm×9.0 mm×18.0 mm, matrix size=128×72×144, native resolution≈125×125×125 um3, time=3 h). Volumetric measurements were performed using ROI editor software.
# [8] = system: neonatal hypoxic-ischemic brain injury in p10 C57BL6 mice; test: Y-maze spontaneous alternation test in HI mice; format: in vivo, mouse; conditions: 50 days after HI; p<0.001
# Procedure: as §1
# [9] = system: neonatal hypoxic-ischemic brain injury in p10 C57BL6 mice; test: TTC staining infarct measurement in neonatal hypoxic-ischemic (HI) injury mouse model; format: in vivo
# Procedure: Postnatal day 10 mice were subjected to the modified Vanucci-Rice model of neonatal hypoxic-ischemic injury (permanent right common carotid artery ligation followed by 8% oxygen/balance nitrogen exposure) and then treatment started the same day by daily oral gavage with J147 at 10 mg/kg/day for 2 weeks after injury. Infarction volume, performance on functional tests of coordination, locomotion and memory, markers of neurogenesis, and apoptotic cell death were measured. Hypoxic-ischemic (HI) injury and J147 treatment: To induce HI injury, permanent right common carotid artery ligation was performed in p10 C57BL6 mice followed by 8% oxygen/balance nitrogen exposure for 45 min at 37° C. hypoxic chamber. From the day of HI injury, either J147 (10 mg/kg/day) or vehicle (corn oil, same volume) were once daily administered through oral gavage for a period of two weeks. TTC staining: 24 h after HI injury, 2 mm coronal brain sections were immersed in 1% 2,3,5-Triphenyltetrazolium chloride (TTC) at 37° C. for 30 min. Images of individual sections were digitized and infarct area was measured with the ImageJ software. Injury volumes were calculated using [contralateral hemisphere volume-(ipsilateral hemisphere volume-lesion volume)]/contralateral hemisphere volume×100.
smiles,measurement,setting,value
COc1cc2c(cc1OC)C(=O)C(CC1CCN(Cc3ccccc3)CC1)C2 (stereo not shown) [donepezil],Effect on the overall cognitive index,[1]; patients with cognitive decline one year after cardiac surgery,had no effect
[Mg+2] [Magnesium],Effect on post-surgical cognitive dysfunction,[1],failed to reduce post-surgical cognitive dysfunction
Cc1cccc([C@H](C)c2cnc[nH]2)c1C [Dexmedetomidine],Effect on post-surgical cognitive dysfunction,[1],failed to show efficacy
COc1cccc(/C=N/N(C(=O)C(F)(F)F)c2ccc(C)cc2C)c1 [J147],NeuN+ area in hippocampus,"[2]; HI+J147, daily 10 μg/g gavage P10 to P14, SH 0.52, HI 0.32, p=0.0433",0.45 mm2/section
same,TUNEL+ apoptotic cells in hippocampus,"[2]; HI+J147, daily 10 μg/g gavage P10 to P14, SH 36.33, HI 372.67, p=0.0092",208.17 /section
same,Reduction in apoptotic cell death in the hippocampus,"[2]; J147 treatment, summary",roughly 50%
same,Performance in the open field test,[3],significant improvement
same,"Open field test performance, improvement",[3]; J147 treatment group,about 25%
same,Performance in the rotarod test,[4],significant improvement
same,"Rotarod test performance, improvement","[4]; chronic, J147 treatment group",about 25%
same,Tbr2-positive cells,[5]; at one week after injury,significant increase
same,Nestin-positive cells,[5]; one day and one week after injury,increased
same,TUNEL+ cells in dentate gyrus,"[6]; 0.5 μg/g/day oral gavage P10-P14, p>0.05",123.2+51.5 cells
same,TUNEL+ cells in dentate gyrus,"[6]; 1 μg/g/day oral gavage P10-P14, p>0.05",107.8+42.7 cells
same,TUNEL+ cells in dentate gyrus,"[6]; 5 μg/g/day oral gavage P10-P14, p<0.01",55+23.6 cells
same,TUNEL+ cells in dentate gyrus,"[6]; 10 μg/g/day oral gavage P10-P14, p<0.001",42.2+23 cells
same,TUNEL+ cells in dentate gyrus,"[6]; 25 μg/g/day oral gavage P10-P14, p<0.001",31.7+21.4 cells
same,"Ipsilateral hemisphere volume as percentage of contralateral hemisphere volume by MRI, area of brain injury (FIG. 3)","[7]; 50 days after hypoxia-ischemia injury, J147 10 mg/kg/day for 2 weeks, 10 mg/kg/day",reduced lesion size; also recorded: substantial reduction of effect compared with HI; also recorded: almost entirely reduces the area of brain injury
same,"MRI reduction in infarction volume, HIJ mice compared with untreated HI mice",[7]; MRI measurements at 50 days,~50%
same,MRI imaging reduction in lesion size,"[7]; adult mice, two weeks of J147 treatment 10 mg/kg/day oral gavage, p<0.001",88%
same,"Y-maze spatial learning task, improvement compared to HI controls",[8],33%
same,Area of brain injury / lesion size by TTC staining (FIG. 2),"[9]; 24 hours after HI injury, J147 10 mg/kg/day oral gavage, 10 mg/kg/day",reduced lesion size; also recorded: reduced areal extent of injury; also recorded: significantly reduces the area of brain injury
same,"Infarct size as measured by TTC staining, reduction relative to HI controls","[9]; one day of J147 treatment, 10 mg/kg/day oral gavage, 24 h after HI injury, p<0.001",48%
CCN(C)C(=O)Oc1cccc([C@H](C)N(C)C)c1 [Rivastigmine],Safety in seriously ill patients after surgery,"[1]; clinical investigation NCT00835159, terminated",too dangerous
same,Effect on post-surgical cognitive dysfunction,[1],no efficacy was observed
